Experimental data taken from patent publication US20050059661A1, “Use of tyrosine kinase inhibitors for the treatment of inflammatory processes” (Boehringer Ingelheim International GmbH, priority 2003, published 2005).

tested on: cigarette smoke-induced influx of neutrophilic granulocytes into the lung tissue; assay: Test 1: Inhibition of the smoke-induced accumulation of granulocytes in the lung tissue (MPO activity); format: in vivo, rats (Sprague-Dawley); conditions: male Sprague-Dawley rats, 5 days smoke from 8 cigarettes per day, intratracheal dose 30 min before exposure, lung tissue MPO, linear regression
Description: • A=4-[(R)-(1-phenyl-ethyl)amino]-6-{[4-((R)-6-methyl-2-oxo-morpholin-4-yl)-1-oxo-2-buten-1-yl]amino}-7-methoxy-quinazoline, • B=4-[(3-chloro-4-fluorophenyl)amino]-6-({4-[N,N-bis-(2-methoxy-ethyl)-amino]-1-oxo-2-buten-1-yl}amino)-7-[(tetrahydrofuran-2-yl)methoxy]-quinazoline, • C=4-[(3-chloro-4-fluoro-phenyl)amino]-6-[2-(2,2-dimethyl-6-oxo-morpholin-4-yl)-ethoxy]-7-methoxy-quinazoline, • D=4-[(3-chloro-4-fluoro-phenyl)amino]-6-[2-(2,2-dimethyl-6-oxo-morpholin-4-yl)-ethoxy]-7-[(R)-(tetrahydrofuran-2-yl)methoxy]-quinazoline and • E=4-[(3-chloro-4-fluoro-phenyl)amino]-7-[2-(2,2-dimethyl-6-oxo-morpholin-4-yl)-ethoxy]-6-[(S)-(tetrahydrofuran-2-yl)methoxy]-quinazoline were tested as follows to investigate their anti-inflammatory activity: Test 1: Inhibition of the Smoke-Induced Accumulation of Granulocytes in the Lung Tissue Lung indications: Inhibition of the cigarette smoke-induced influx of neutrophilic granulocytes into the lung tissue by the EGF-receptor kinase inhibitor 4-[(R)-(1-phenyl-ethyl)amino]-6-{[4-((R)-6-methyl-2-oxo-morpholin-4-yl)-1-oxo-2-buten-1-yl]amino}-7-methoxy-quinazoline (compound A). Male rats (strain: Sprague-Dawley) weighing from 250-300 g were exposed for 5 days to the smoke from 8 cigarettes per day. The animals in the group treated with compound A, anaesthetised with isofluran, were given an intratracheal dose of 0.03 or 0.1 mg/kg of compound A in a volume of 0.05 ml each day 30 min before the start of the exposure to smoke. On the last day of the test the animals were killed 4 hours after the last exposure to smoke and the lung tissue was removed. A sample of 70-200 mg was taken from each lung and placed in a test tube prepared with 1 ml of 0.5% hexadecyltrimethylammonium bromide. The samples were homogenised for 15 sec using an Ultraturrax. The homogenised samples were centrifuged at 15700 g in an Eppendorf bench centrifuge for 5 min at ambient temperature. […] of the supernatant was removed and mixed with […] of phosphate buffer (50 mmol/l) containing 0.197 mg/ml of O-dianisidine dihydrochloride. After 10 minutes' incubation at ambient temperature the absorption was measured with a spectral photometer at a wavelength of 450 nm. The dosage which led to a 50% inhibition of the MPO activity (═ID50) was determined by linear regression.

In order of falling “ID50 (dosage which led to a 50% inhibition of the MPO activity)” value:
1. CC1(C)CN(CCOc2cc3c(Nc4ccc(F)c(Cl)c4)ncnc3cc2OC[C@H]2CCCO2)CC(=O)O1 [D, 4-[(3-chloro-4-fluoro-phenyl)amino]-6-[2-(2,2-dimethyl-6-oxo-morpholin-4-yl)-ethoxy]-7-[(R)-(tetrahydrofuran-2-yl)methoxy]-quinazoline]  1.1 mg/kg
2. COc1cc2ncnc(Nc3ccc(F)c(Cl)c3)c2cc1OCCN1CC(=O)OC(C)(C)C1 [C, 4-[(3-chloro-4-fluoro-phenyl)amino]-6-[2-(2,2-dimethyl-6-oxo-morpholin-4-yl)-ethoxy]-7-methoxy-quinazoline]  1 mg/kg
3. CC1(C)CN(CCOc2cc3ncnc(Nc4ccc(F)c(Cl)c4)c3cc2OC[C@@H]2CCCO2)CC(=O)O1 [E, 4-[(3-chloro-4-fluoro-phenyl)amino]-7-[2-(2,2-dimethyl-6-oxo-morpholin-4-yl)-ethoxy]-6-[(S)-(tetrahydrofuran-2-yl)methoxy]-quinazoline]  0.4 mg/kg
4. COc1cc2ncnc(N[C@H](C)c3ccccc3)c2cc1NC(=O)C=CCN1CC(=O)O[C@H](C)C1 [A, 4-[(R)-(1-phenyl-ethyl)amino]-6-{[4-((R)-6-methyl-2-oxo-morpholin-4-yl)-1-oxo-2-buten-1-yl]amino}-7-methoxy-quinazoline]  0.3 mg/kg
5. COCCN(CC=CC(=O)Nc1cc2c(Nc3ccc(F)c(Cl)c3)ncnc2cc1OCC1CCCO1)CCOC (stereo not drawn) [B, 4-[(3-chloro-4-fluorophenyl)amino]-6-({4-[N,N-bis-(2-methoxy-ethyl)-amino]-1-oxo-2-buten-1-yl}amino)-7-[(tetrahydrofuran-2-yl)methoxy]-quinazoline]  0.2 mg/kg

same assay, conditions: rats, intratracheal 0.03 or 0.1 mg/kg daily for 5 days, 30 min before smoke exposure

With `COc1cc2ncnc(N[C@H](C)c3ccccc3)c2cc1NC(=O)C=CCN1CC(=O)O[C@H](C)C1` [A, 4-[(R)-(1-phenyl-ethyl)amino]-6-{[4-((R)-6-methyl-2-oxo-morpholin-4-yl)-1-oxo-2-buten-1-yl]amino}-7-methoxy-quinazoline] the “inhibition of the smoke-induced accumulation of granulocytes (myeloperoxidase content of lung tissue)” value was “significant (p<0.005) inhibition”.
